Measurements taken from paper PMC10859961, “Ir(III) Half-Sandwich Photosensitizers with a π-Expansive Ligand for Efficient Anticancer Photodynamic Therapy” (Journal of Medicinal Chemistry, 2024).
Several values for one entry are separate records, joined by “and”; a condition that tells them apart may be missing. Equal entries are not always repeated. Where two headings read alike, the source gives them in different places.

Experiments:
[1] = Stability and photostability studies by 1H NMR; assay type: physicochemical
Description: Solutions of complexes 1 and 6 at 3.2 mM and 2 at 0.6 mM in DMSO-d6 and DMSO-d6/D2O mixture (9:1, v/v) were prepared.

1BR.3.G = assay: CyQUANT cell viability assay, dark or blue light; assay type: cell-based, human; conditions: for IC50: 48 h; for PI (IC50,dark/IC50,light): blue light 460 nm
Description: (§1) Cells were cultured in 96-well plates at a density of 3000 (A549), 2500 (HeLa), or 5000 (PC-3, 1BR.3.G, and MRC-5) cells per well in cell culture medium and allowed to attach for 24 h. Solutions of the complexes at different concentrations were prepared for cell treatments. In all cases, the solid compounds were weighed using an analytical balance (Mettler Toledo AX205DR) to ensure precise measurements. Subsequently, 5 mM solutions were prepared using DMSO. Solutions were then diluted in water to reach a concentration of 1 mM and then, aliquots were taken and diluted in culture medium to obtain solutions ranging from 0 to 50 μM. […] The cells were treated with these solutions in dark conditions or following the photoactivation protocol (see below). 48 h later the treatments were removed, and cells were washed with phosphate-buffered saline (PBS).
(§2) Initially, the effect of the complexes on the cell viability was determined by the 3-(4,5-dimethylthiazol-2-yl)-2,5-diphenyltetrazolium bromide (MTT) assay.[147] The cells were incubated for 2 h with 100 μL of culture medium together with 10 μL of MTT (Sigma-Aldrich) at 0.5 mg/mL. After discarding the medium, DMSO was added to each well to dissolve the purple formazan crystals. The absorbance of each well was determined on a Multiscan Plate Reader (Synergy 4, Biotek, Winooski) at a wavelength of 570 nm. Cell viability was also assessed using the CyQUANT Direct Cell Proliferation Assay (Thermo Fisher Scientific), following the manufacturer’s instructions. Briefly, after the treatments, the cells were washed with PBS, and an equal volume of culture medium and CyQUANT mix was added to each well. The plates were then incubated for 1 h at 37 °C. Subsequently, the fluorescence intensity was bottom read using a Multiscan Plate Reader (Synergy 4, Biotek, Winooski) with excitation and emission filters of 485 and 528 nm, respectively. In both assays, at least three replicates were measured for each treatment. The concentration that reduces the cell viability by 50% (IC50) was established using the Gen5 software (BioTek). Three independent experiments were carried out for each compound. […] The phototoxicity index (PI = IC50,dark/IC50,light) was determined.
(§3) To assess the photodynamic activity of the complexes, cells were incubated with the complexes for 4 h to enable their intracellular accumulation. The cells were then irradiated with light with a wavelength of 460 nm (blue), 530 nm (green), or 655 nm (red) for 1 h using a LED system (LuxLight) with an effective power of 6.7 mW cm^–2, which provides a total light dose of 24.1 J cm^–2. The LED system was positioned at 25 mm from the cell culture plates.

A549 = assay: CyQUANT cell viability assay, dark or blue light; assay type: cell-based, human; conditions: for PI/Dose / IC50 / PI (IC50,dark/IC50,light): A549; for PI/Dose: 460 nm, dose 24.1 J cm‐2, PI from CyQUANT; for IC50: 48 h; for IC50 / PI (IC50,dark/IC50,light) / photoselectivity: IC50,light in A549 lower than IC50,dark in MRC-5 / phototoxicity indexes: CyQUANT; for PI (IC50,dark/IC50,light): blue light 460 nm; for photoselectivity: IC50,light in A549 lower than IC50,dark in MRC-5: A549 blue light vs nonirradiated MRC-5 lung fibroblasts; for phototoxicity indexes: three cancer cell lines (A549, HeLa, PC-3), blue light
Description: as §1, §2, §3

A549 cells = assay: Mitochondrial membrane potential (JC-1, flow cytometry); assay type: cell-based, human; conditions: 10 nM, blue light 1 h
Description: A549 cells were seeded onto 24-well plates. 24 h later, cells were incubated for 4 h with complexes 2, 4, 6, and 8 at 10 nM and then photoactivated or kept in the dark for an additional hour. Next, the cells were washed with PBS and harvested by trypsinization. Mitochondrial membrane potential changes were immediately measured by the JC-1 (5,5′,6,6′-tetrachloro-1,1′,3,3′-tetraethylbenzimidazolocarbo-cyanine iodide) Mitochondrial Membrane Potential Detection Kit (Biotium), according to the manufacturer’s instructions. As positive control, the cells were coincubated with CCCP (Sigma) at 5 μM for 30 min to disrupt the mitochondrial membrane potential. For each treatment, the fluorescence of 1 × 10^4 cells was analyzed by a Novocyte flow cytometer. JC-1 red aggregates were detected at a wavelength of 590 nm (FL2) and JC-1 green monomers at 529 nm (FL1).

[2] = pKa determination (absorbance vs pH); assay type: physicochemical; conditions: DMSO/H2O (2/98, v/v), Bu4NBF4 5 mM; piperidine ring
Description: Solutions of complexes 5 and 6 (2.00 × 10^–5 M) and Imepip ligand (2.00 × 10^–3 M) in H2O/DMSO (98/2, v/v) mixture with n-Bu4NBF4 (5 mM) were prepared. The presence of the salt ensured the conductivity of the media. Evolution of the peaks was studied at different pH by recording the absorbance spectrum. Aliquots of 10 μL of HCl (0.002–0.020 M) or NaOH (0.002–0.020 M) were added to a solution of 2.4 mL of complex to vary the pH. The absorbance versus pH plot enables us to determine one constant according to the equation from the Wilson and Lester method (eq 2):[146] [drawing 23] 2 where Aa is the absorbance for the acid species, Ab is the absorbance for the basic species, and Am is the absorbance of the mixture. The intersection obtained by representing log(Am – Aa)/(Ab – Am) versus pH provides the pKa.

[3] = 1BR.3.G nonmalignant fibroblasts, dark, read-out: IC50,dark
[4] = 1BR.3.G, blue light 460 nm 1 h (24.1 J cm^–2), read-out: IC50,light
[5] = blue light 460 nm 1 h (24.1 J cm^–2), read-out: IC50,light

In the case of `Cc1c(C)c(C)[c-](C)c1C.[Cl][Ir]1[c]2cccc3c4nc5ccccc5nc4c4ccc[n+]1c4c23` [complex 1, [(η^5-C5Me5)IrCl(pbpz)]], the “Percentage of species (chlorido complex remaining / aqua adduct formed), 1H NMR” value ([1]; DMSO‐d6, dark, 0 h) is reported as 100%, the “Percentage of species (chlorido complex remaining / aqua adduct formed), 1H NMR” value ([1]; DMSO‐d6, dark, 0.5 h) is reported as 78% and the “Percentage of species (chlorido complex remaining / aqua adduct formed), 1H NMR” value ([1]; DMSO‐d6, dark, 1 h) is reported as 76%. For the same compound, the “Percentage of species (chlorido complex remaining / aqua adduct formed), 1H NMR” value ([1]; DMSO‐d6, dark, 1.5 h) was 75%, the “Percentage of species (chlorido complex remaining / aqua adduct formed), 1H NMR” value ([1]; DMSO‐d6, dark, 2.5 h) was 72% and the “Percentage of species (chlorido complex remaining / aqua adduct formed), 1H NMR” value ([1]; DMSO‐d6, dark, 4.5 h) was 71%. For the same compound, the “Percentage of species (chlorido complex remaining / aqua adduct formed), 1H NMR” value ([1]; DMSO‐d6, dark, 6 h) was 70%, the “Percentage of species (chlorido complex remaining / aqua adduct formed), 1H NMR” value ([1]; DMSO‐d6, dark, 8 h) was 69% and the “Percentage of species (chlorido complex remaining / aqua adduct formed), 1H NMR” value ([1]; DMSO‐d6, dark, 10 h) was 68%. For the same compound, the “Percentage of species (chlorido complex remaining / aqua adduct formed), 1H NMR” value ([1]; DMSO‐d6, dark, 32 h) was 57%, the “Percentage of species (chlorido complex remaining / aqua adduct formed), 1H NMR” value ([1]; DMSO‐d6, dark, 50 h) was 49% and the “Percentage of species (chlorido complex remaining / aqua adduct formed), 1H NMR” value ([1]; DMSO‐d6, dark, 70 h) was 40%. The “Percentage of species (chlorido complex remaining / aqua adduct formed), 1H NMR” value ([1]; DMSO‐d6, dark, 97 h) was 35%, the “Percentage of species (chlorido complex remaining / aqua adduct formed), 1H NMR” value ([1]; DMSO‐d6/D2O (9/1), dark, 0 h) was 100% and the “Percentage of species (chlorido complex remaining / aqua adduct formed), 1H NMR” value ([1]; DMSO‐d6/D2O (9/1), dark, 0.5 h) was 4%. The “Percentage of species (chlorido complex remaining / aqua adduct formed), 1H NMR” value ([1]; DMSO‐d6/D2O (9/1), dark, 1 h) was 0.5%, the “Percentage of species (chlorido complex remaining / aqua adduct formed), 1H NMR” value ([1]; DMSO‐d6/D2O (9/1), dark, 1.5 h) was 0% and the “Percentage of species (chlorido complex remaining / aqua adduct formed), 1H NMR” value ([1]; DMSO‐d6/D2O (9/1), dark, 2.5 h) was 0%. For the same compound, the “Percentage of species (chlorido complex remaining / aqua adduct formed), 1H NMR” value ([1]; DMSO‐d6/D2O (9/1), dark, 4.5 h) was 0%, the “Percentage of species (chlorido complex remaining / aqua adduct formed), 1H NMR” value ([1]; DMSO‐d6/D2O (9/1), dark, 6 h) was 0% and the “Percentage of species (chlorido complex remaining / aqua adduct formed), 1H NMR” value ([1]; DMSO‐d6/D2O (9/1), dark, 8 h) was 0%. The “Percentage of species (chlorido complex remaining / aqua adduct formed), 1H NMR” value ([1]; DMSO‐d6/D2O (9/1), dark, 10 h) was 0%, the “Percentage of species (chlorido complex remaining / aqua adduct formed), 1H NMR” value ([1]; DMSO‐d6/D2O (9/1), dark, 32 h) was 0% and the “Percentage of species (chlorido complex remaining / aqua adduct formed), 1H NMR” value ([1]; DMSO‐d6/D2O (9/1), dark, 50 h) was 0%. The “Percentage of species (chlorido complex remaining / aqua adduct formed), 1H NMR” value ([1]; DMSO‐d6/D2O (9/1), dark, 70 h) was 0% and the “Percentage of species (chlorido complex remaining / aqua adduct formed), 1H NMR” value ([1]; DMSO‐d6/D2O (9/1), dark, 97 h) was 0%.
With `Cc1c(C)c(C)[c-](C)c1C.F[B-](F)(F)F.c1ccc2cc3nc4c5ccc[n+]6c5c5[c](cccc5c4nc3cc2c1)[Ir]6[n+]1cc[nH]c1` [complex 4, [(η^5-C5Me5)Ir(Im)(pbpn)]BF4] the IC50 (1BR.3.G; [3]) was 2000 ± 400 nM, the “PI (IC50,dark/IC50,light)” value (1BR.3.G; 1BR.3.G) was 2451 and the IC50 (1BR.3.G; [4]) was 0.8 ± 0.4 nM. It also gave a PI/Dose (A549; listed as 4) of 84, a PI/Dose (A549; listed as Complex 4) of 84.4 and an IC50 (A549; [5]) of 1 ± 0.4 nM. The “PI (IC50,dark/IC50,light)” value (A549) was 2034, the IC50 (A549; dark, read-out: IC50,dark) was 2100 ± 600 nM and the “photoselectivity: IC50,light in A549 lower than IC50,dark in MRC-5” value (A549) was 2480 times. For the same compound, the phototoxicity indexes (A549) was “approximately 1000” and the “cells with red fluorescence (JC-1 aggregates), upper right quadrant” value (shortened to “cells … upper right quadrant”) (A549 cells) was 34.3%.
In the case of `Cc1c(C)c(C)[c-](C)c1C.F[B-](F)(F)F.c1ccc2nc3c4ccc[n+]5c4c4[c](cccc4c3nc2c1)[Ir]5[n+]1ccn(CCN2CCCCC2)c1` [complex 5, [(η^5-C5Me5)Ir(Imepip)(pbpz)]BF4], the pKa [2] is reported as 7.2 and 7.19.
For `Cc1c(C)c(C)[c-](C)c1C.F[B-](F)(F)F.c1ccc2cc3nc4c5ccc[n+]6c5c5[c](cccc5c4nc3cc2c1)[Ir]6[n+]1ccn(CCN2CCCCC2)c1` [complex 6, [(η^5-C5Me5) Ir(Imepip)(pbpn)]BF4], the pKa [2] was 7.8 and 7.85, the IC50 (1BR.3.G; [3]) was 570 ± 60 nM and the “PI (IC50,dark/IC50,light)” value (1BR.3.G; 1BR.3.G) was 644. The IC50 (1BR.3.G; [4]) was 0.9 ± 0.3 nM, the IC50 (A549; [5]) was 0.4 ± 0.2 nM and the “PI (IC50,dark/IC50,light)” value (A549) was 911. For the same compound, the IC50 (A549; dark, read-out: IC50,dark) was 330 ± 200 nM, the “photoselectivity: IC50,light in A549 lower than IC50,dark in MRC-5” value (A549) was 1750 times and the phototoxicity indexes (A549) was “approximately 1000”. The “cells … upper right quadrant” value (A549 cells) was 16.9% and the “release of the N-donor ligand (1H NMR)” value ([1]; DMSO-d6/D2O (9/1), dark or blue, green or red light irradiation) was “not observed”.
With `Cc1c(C)c(C)[c-](C)c1C.F[B-](F)(F)F.c1ccc(Cn2cc[n+]([Ir]3[c]4cccc5c6nc7cc8ccccc8cc7nc6c6ccc[n+]3c6c45)c2)cc1` [complex 8, [(η^5-C5Me5)Ir(bzIm)(pbpn)]BF4] the IC50 (1BR.3.G; [3]) was 500 ± 40 nM, the “PI (IC50,dark/IC50,light)” value (1BR.3.G; 1BR.3.G) was 942 and the IC50 (1BR.3.G; [4]) was 0.5 ± 0.2 nM. The PI/Dose (A549) was 52.3, the IC50 (A549; [5]) was 0.4 ± 0.3 nM and the “PI (IC50,dark/IC50,light)” value (A549) was 1260. For the same compound, the IC50 (A549; dark, read-out: IC50,dark) was 500 ± 200 nM, the “photoselectivity: IC50,light in A549 lower than IC50,dark in MRC-5” value (A549) was 1700 times and the phototoxicity indexes (A549) was “approximately 1000”. For the same compound, the “cells … upper right quadrant” value (A549 cells) was 6.6%.
